# Reference: PMC8465764 (Organic letters, 2021)
# Key:
# [1] = test system: B. subtilis FabH; assay: FabH radiochemical assay, […]-ketoacyl-ACP formed; format: biochemical, Bacillus subtilis
# [2] = target: T1, S. aureus FabH (Staphylococcus aureus, UniProt Q8NXE2); assay: as above; format: biochemical
# T1 sequence (Q8NXE2 1-313): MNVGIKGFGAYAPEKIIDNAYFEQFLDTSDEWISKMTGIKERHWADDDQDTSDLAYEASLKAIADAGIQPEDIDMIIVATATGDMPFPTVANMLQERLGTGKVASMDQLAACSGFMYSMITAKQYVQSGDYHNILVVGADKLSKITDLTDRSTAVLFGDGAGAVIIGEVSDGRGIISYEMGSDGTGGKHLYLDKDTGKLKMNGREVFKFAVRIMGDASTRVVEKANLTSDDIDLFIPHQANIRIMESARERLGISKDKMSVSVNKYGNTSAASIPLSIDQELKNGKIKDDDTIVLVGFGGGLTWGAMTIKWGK
smiles,measurement,setting,value
"C=C(C(=O)O)[C@@H]1O[C@H]1CCCCC=C(C)CCC[C@H](O)CC [compound 2, conocandin B]",IC50,[1],53.5 ± 10.4 µM
same,IC50,[2],18.8 ± 2.5 µM
